Experimental data reported in patent US11154563B2, “Immunoproteasome inhibitors” (Principia Biopharma Inc., priority 2017, dated 2021).

What was measured:
Format in all cases: biochemical
[1] = biological target: immunoproteasome LMP7/B5i subunit (Homo sapiens, UniProt P20618+P28062); test: Caliper-based proteasome enzymatic activity assay, LMP7; settings: human recombinant immunoproteasome 0.3 nM, FAM-peptide substrate 1 μM, 3 h at rt
In short: (§1)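 Recombinant human immunoproteasome or constitutive proteasome (0.3 nM) with 1 μM FAM-peptide in 20 mM Hepes pH 7.4, 0.015% SDS, 0.01% BSA; LMP7/β5c ran 3 h at rt and were stopped with 5 uM carfilzomib, LMP2 ran 2 h and was stopped with 6.7 uM ixazomib. Cleaved product quantified by microfluidic separation; IC50 from percent inhibition.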

[2] = biological target: immunoproteasome LPM2/β1i subunit (Homo sapiens, UniProt P28065+P40306); test: Caliper-based proteasome enzymatic activity assay, LMP2; settings: human recombinant immunoproteasome 0.3 nM, FAM-peptide substrate 1 μM, 2 h at rt
Procedure: A Caliper-based proteasome assay (Caliper Life Sciences, Hopkinton, Mass.) was used to measure inhibition of the immunoproteasome LMP7/B5i subunit, the immunoproteasome LPM2/β1i subunit, and the constitutive proteasome β5c unit for a compound of Formula (I). For LMP7 and β5c, serial dilutions of test compounds were incubated with either human recombinant immunoprotcasome or constitutive proteasome (0.3 nM enzyme) and a carboxyfluorescein (FAM)-labeled peptide substrate FAM-TYETFKSIMKKSPF-NH2 (1 μM) at it for 3 h. The reaction was then terminated with a buffer containing the known proteasome inhibitor carfilzomib at a concentration of 5 uM. For LMP2, serial dilutions of test compounds were incubated with human recombinant immunoproteasome proteasome (0.3 nM enzyme) and a carboxyfluorescein (FAM)-labeled peptide substrate FAM-[…]-NH2 (1 μM) at rt for 2 h. The reaction was then terminated with a buffer containing the known proteasome inhibitor ixazomib at a concentration of 6.7 uM. The reaction buffer was 20 mM Hepes pH 7.4, 0.01% bovine serum albumin, 0.015% SDS, 0.5 mM EDTA, 1%0/DMSO. The peptide cleavage reaction product was quantified on a Caliper LabChip 3000. Percent inhibition was calculated for each compound dilution and the concentration that produced 50% inhibition was calculated. This value is presented as the IC50.

[3] = biological target: constitutive proteasome β5c unit (Homo sapiens, UniProt P20618+P28074); test: Caliper-based proteasome enzymatic activity assay, β5c; settings: human recombinant constitutive proteasome 0.3 nM, FAM-peptide substrate 1 μM, 3 h at rt; read-out: β5c subunit IC50
In short: as §1

Compound | IC50 [1] [nM] | IC50 [2] [nM] | IC50 [3] [nM]
C=CC(=O)N1CCCC[C@@H]1COC(=O)N[C@@H](Cc1ccccc1)B(O)O [Example 8, ((R)-1-(((((R)-1-acryloylpiperidin-2-yl)methoxy)carbonyl)amino)-2-phenylethyl)boronic acid] | > 5000 | > 5000 | > 5000
CC(C)(C)/C=C(\C#N)C(=O)N1CCCC[C@H]1COC(=O)N[C@@H](Cc1ccccc1)B(O)O [Example 9, ((R)-1-(((((S)-1-((E)-2-cyano-4,4-dimethylpent-2-enoyl)piperidin-2-yl)methoxy)carbonyl)amino)-2-phenylethyl)boronic acid] | 14 | 3650 | > 5000
C=CC(=O)N1CCCC[C@H]1COC(=O)N[C@@H](Cc1ccccc1)B(O)O [Example 11, ((R)-1-(((((S)-1-acryloylpiperidin-2-yl)methoxy)carbonyl)amino)-2-phenylethyl)boronic acid] | 957 | 3240 | > 5000
CC(C)C=C(C#N)C(=O)N1CCC[C@H]1COC(=O)N[C@@H](Cc1ccccc1)B(O)O [Example 12, ((R)-1-(((((S)-1-(2-cyano-4-methylpent-2-enoyl)pyrrolidin-2-yl)methoxy)carbonyl)amino)-2-phenylethyl)boronic acid] | 39 | > 5000 | > 5000
CC(C)C=C(C#N)C(=O)N1CCCC[C@H]1COC(=O)N[C@@H](Cc1ccccc1)B(O)O [Example 13, ((R)-1-(((((S)-1 (2-cyano-4-methylpent-2-enoyl)piperidin-2-yl)methoxy)carbonyl)amino)-2-phenylethyl)boronic acid] | 38 | 4040 | > 5000
C=CC(=O)N1CCC[C@@H]1COC(=O)N[C@@H](Cc1ccccc1)B(O)O [Example 14, ((R)-1-(((((R)-1-acryloylpyrrolidin-2-yl)methoxy)carbonyl)amino)-2-phenylethyl)boronic acid] | 123 | > 5000 | 4850
CC(C)C=C(C#N)C(=O)N1CCC[C@@H]1COC(=O)N[C@@H](Cc1coc2ccccc12)B(O)O [Example 16, ((R)-2-(benzofuran-3-yl)-1-(((((R)-1-(2-cyano-4-methylpent-2-enoyl)pyrrolidin-2-yl)methoxy)carbonyl)amino)ethyl)boronic acid] | 2.5 | > 5000 | 444
CC(C)(C=C(C#N)C(=O)N1CCC[C@@H]1COC(=O)N[C@@H](Cc1ccccc1)B(O)O)N1CCN(C2COC2)CC1 [Example 17, ((R)-1-(((((R)-1-(2-cyano-4-methyl-4-(4-(oxetan-3-yl)piperazin-1-yl)pent-2-enoyl)pyrrolidin-2-yl)methoxy)carbonyl)amino)-2-phenylethyl)boronic acid] | 1.9 | > 5000 | 2950
Cc1ccc(C[C@H](NC(=O)OC[C@H]2CCCN2C(=O)C(C#N)=CC(C)(C)C)B(O)O)cc1 [Example 18, ((R)-1-(((((R)-1-(2-cyano-4,4-dimethylpent-2-enoyl)pyrrolidin-2-yl)methoxy)carbonyl)amino)-2-(p-tolyl)ethyl)boronic acid] | 2 | > 5000 | 1540
C=CC(=O)N1CCC[C@@H]1COC(=O)N[C@@H](Cc1ccc(C)cc1)B(O)O [Example 19, ((R)-1-(((((R)-1-acryloylpyrrolidin-2-yl)methoxy)carbonyl)amino)-2-(p-tolyl)ethyl)boronic acid] | 60 | > 5000 | 3260
CC(C)(C=C(C#N)C(=O)N1CCC[C@@H]1COC(=O)N[C@@H](Cc1ccccc1)B(O)O)N1CCCCC1 [Example 20, ((R)-1-(((((R)-1-(2-cyano-4-methyl-4-(piperidin-1l-yl)pent-2-enoyl)pyrrolidin-2-yl)methoxy)carbonyl)amino)-2-phenylethyl)boronic acid] | 3.6 | > 5000 | 4540
CC(C)(C=C(C#N)C(=O)N1CCC[C@@H]1COC(=O)N[C@@H](Cc1ccccc1)B(O)O)N1CCC(F)(F)CC1 [Example 21, ((R)-1-(((((R)-1-(2-cyano-4-(4,4-difluoropiperidin-1-yl)-4-methylpent-2-enoyl)pyrrolidin-2-yl)methoxy)carbonyl)amino)-2-phenylethyl)boronic acid] | 1.4 | 4780 | 1940
CC(C)(C=C(C#N)C(=O)N1CCC[C@]1(C)COC(=O)N[C@@H](Cc1ccc(F)cc1)B(O)O)N1CCC(F)(F)C1 [Example 120, ((R)-1-(((((R)-1-(2-cyano-4-(3,3-difluoropyrrolidin-1-yl)-4-methylpent-2-enoyl)-2-methylpyrrolidin-2-yl)methoxy)carbonyl)amino)-2-(4-fluorophenyl)ethyl)boronic acid] | 530 |  | > 5000
C=C(F)C(=O)N1CCC[C@]1(C)COC(=O)N[C@@H](Cc1ccc(F)cc1)B(O)O [Example 121, ((R)-1-(((((R)-1-(2-fluoroacryloyl)-2-methylpyrrolidin-2-yl)methoxy)carbonyl)amino)-2-(4-fluorophenyl)ethyl)boronic acid] | 1.9 |  | 1750
CC(C)(C=C(C#N)C(=O)N1CCCC[C@@H]1COC(=O)N[C@@H](Cc1ccc(C#N)cc1)B(O)O)N1CCC(F)(F)C1 [Example 122, ((R)-1-(((((R)-1-(2-cyano-4-(3,3-difluoropyrrolidin-1-yl)-4-methylpent-2-enoyl)piperidin-2-yl)methoxy)carbonyl)amino)-2-(4-cyanophenyl)ethyl)boronic acid] | 1.5 |  | 4180
CC(C)(C=C(C#N)C(=O)N1C[C@@H]2C[C@@H]2[C@@H]1COC(=O)N[C@@H](Cc1ccc(F)cc1)B(O)O)N1CCOCC1 [Example 123, ((R)-1-(((((1S,2R,5R)-3-(2-cyano-4-methyl-4-morpholinopent-2-enoyl)-3-azabicyclo[3.1.0]hexan-2-yl)methoxy)carbonyl)amino)-2-(4-fluorophenyl)ethyl)boronic acid] | 550 |  | > 5000
CC(C)(C=C(C#N)C(=O)N1CCCC[C@@H]1COC(=O)N[C@@H](Cc1ccc(S(C)(=O)=O)cc1)B(O)O)N1CCC(F)(F)C1 [Example 124, ((R)-1-(((((R)-1-(2-cyano-4-(3,3-difluoropyrrolidin-1-yl)-4-methylpent-2-enoyl)piperidin-2-yl)methoxy)carbonyl)amino)-2-(4-(methylsulfonyl)phenyl)ethyl)boronic acid] | 2.2 |  | 550
COC(=O)N1CCN(C(C)(C)C=C(C#N)C(=O)N2CCCC[C@@H]2COC(=O)N[C@@H](Cc2ccccc2)B(O)O)CC1 [Example 125, ((R)-1-(((((R)-1-(2-cyano-4-(4-(methoxycarbonyl)piperazin-1-yl)-4-methylpent-2-enoyl)piperidin-2-yl)methoxy)carbonyl)amino)-2-phenylethyl)boronic acid] | 1.6 |  | 2860
CC(C)(C=C(C#N)C(=O)N1CCCC[C@@H]1COC(=O)N[C@@H](Cc1ccccc1)B(O)O)N1CCN(C2COC2)CC1 [Example 126, ((R)-1-(((((R)-1-(2-cyano-4-methyl-4-(4-(oxetan-3-yl)piperazin-1-yl)pent-2-enoyl)piperidin-2-yl)methoxy)carbonyl)amino)-2-phenylethyl)boronic acid] | 21 |  | > 5000
CC(C)(C=C(C#N)C(=O)N1CCCC[C@@H]1COC(=O)N[C@@H](Cc1ccc(F)cc1)B(O)O)N1CCN(C2COC2)CC1 [Example 127, ((R)-1-(((((R)-1-(2-cyano-4-methyl-4-(4-(oxetan-3-yl)piperazin-1-yl)pent-2-enoyl)piperidin-2-yl)methoxy)carbonyl)amino)-2-(4-fluorophenyl)ethyl)boronic acid] | 5 |  | 900
CC(C)(C)/C=C(\C#N)C(=O)N1CCNC[C@@H]1COC(=O)N[C@@H](Cc1ccccc1)B(O)O [Example 128, ((R)-1-(((((R)-1-((E)-2-cyano-4,4-dimethylpent-2-enoyl)piperazin-2-yl)methoxy)carbonyl)amino)-2-phenylethyl)boronic acid] | 2.3 |  | 2730
CC(C)(C=C(C#N)C(=O)N1CCCC[C@]1(C)COC(=O)N[C@@H](Cc1ccccc1)B(O)O)N1CCC(F)(F)C1 [Example 129, ((R)-1-(((((R)-1-(2-cyano-4-(3,3-difluoropyrrolidin-1-yl)-4-methylpent-2-enoyl)-2-methylpiperidin-2-yl)methoxy)carbonyl)amino)-2-phenylethyl)boronic acid] | 2 |  | 1940
